Assay results published in patent publication US10821117B2, “Estrogen therapy for brain gray matter atrophy and associated disability” (The Regents of the University of California, priority 2014, dated 2020).

Legend:
[1] = test system: multiple sclerosis patients; test: Total (whole) brain gray matter volume change on brain MRI, SIENAX segmentation (Example 1); format: in vivo, human; settings: over 24 months
Method: The effect of estriol treatment as compared to placebo treatment on total (whole) brain gray matter (GM) atrophy was assessed since gray matter atrophy is a surrogate marker for permanent disability in MS. […] The GM volume change from the month 0 scan to the month 12 scan and then the volume change from the month 0 scan to the month 24 scan was calculated.

[2] = test system: relapsing remitting multiple sclerosis patients; test: Brain MRI enhancing lesions and brain volumes (pairwise Jacobian integration); format: in vivo, human
Method: Linear mixed effects model was carried out to compare the percent change in whole gray matter and cortical gray matter between treatment groups. For the exploratory endpoints of EDSS, PASAT, and brain volume measures, linear mixed effects model was used to compare treatment groups at 12 and 24 months. Linear mixed effects model was carried out to evaluate the association between PASAT change and percent brain volume change.
• For Number of Enhancing Lesions, the data in this column are E+GA vs. P+GA mean of lesions number ratio (95% CI) and p-value based on mixed effect negative binomial regression model. • For Lesion Activity on Brain MRI, the data in this column are E+GA vs. P+GA odds ratio (95% CI) and p-value based on mixed effect logistic regression model. MRI Methodologies
Dual-echo fast spin echo: TR10000, TE12/95, 50 slices, 1×1×3 mm. Fluid attenuated inversion recovery (FLAIR): TR10380, TE88, T188, T12500, 50 slices, 1×1×3 mm. Minor changes were allowed to accommodate different platforms and field strengths at each site. MRI data in Dicom format were fully anonymized prior to transfer and then uploaded to the central MRI reading center database. Prior to study onset, each site provided a dummy scan utilizing the standardized sequences for review by the central MRI reading center to verify scan quality and fidelity. Quality control was maintained at each site using standard procedures for clinical scanners (daily phantoms, stability testing). Quarterly phantoms were collected from 12 of the 15 sites, most using the standard American College of Radiology (ACR) phatom. One site upgraded from a Siemens 1.5T to a 3.0T in November 2013, resulting in the acquisition of one month 24 scan on the new scanner. One site upgraded from a Phillips Achieva 3.0T to a Pillips Intera 3.0T after the first subject completed month 24. All subsequent studies were performed on the Intera.
MRI brain, whole gray matter, whole white matter and cortical gray matter volumes were determined using a pairwise Jacobian integration (PJI) method. Pre-processing for structural T1-weighted images included 1) N3 non-uniformity correction, 2) histogram-based intensity normalization, 3) linear standard space registration using ICBM 2009c nonlinear symmetric template, 4) patch-based brain extraction, and 5) lesion-inpainting. Inputs to PJI were a pair of baseline and follow-up pre-processed structural T1-weighed images. The PJI consisted of 1) linear skull-constrained symmetric registration, 2) halfway transformation and resampling, 3) nonlinear symmetric registration using ANTS, and 4) voxelwise Jacobian determinant calculation on the warp field. Whole gray matter and whole white matter tissue masks were generated by SPM8 Segment function. Additional nonlocal means denoising was applied. For whole brain tissue masks, the whole gray matter and whole white matter masks were combined. For cortical gray matter mask, a standard cortical mask was nonlinearly transformed and merged with gray matter mask. The standard template was the ICBM (ICBM 2009c nonlinear symmetric version), and the nonlinear registration was performed by ANTS. Finally, the Jacobian determinants were averaged within the masks for percent volume change in cortical gray matter, whole gray matter, whole white matter, and whole brain.

[3] = test system: relapsing remitting multiple sclerosis patients; test: 7/24 Spatial Recall Test, proportion with perfect score; format: in vivo, human
Method: (§1) The estriol and placebo subjects were administered the 7/24 Spatial Recall Test periodically throughout the study. A perfect score on the test is 7, and for both treatment groups, the median score was also 7. Therefore, performance was assessed by the proportion of subjects in each group who achieved a perfect score on the test. […] Logistic regression for repeated measurement was used to compare the probability having a perfect score between the two treatment groups, adjusting for age, education level, and baseline recall (Table 7).

[4] = test system: relapsing remitting multiple sclerosis patients; test: Delayed Recall Test, proportion with perfect score; format: in vivo, human
Method: as §1, with “Delayed” for “7/24 Spatial”, “9).” for “7).”

[5] = parameters: species or system human; settings: in vivo
Description: Safety assessments, including clinical, blood laboratory safety testing and assessments of estriol levels, occurred at months 0, 3, 6, 12, 18, and 24. On study blood tests included complete blood count (CBC) with differential and platelets; chemistry panel including sodium, potassium, creatinine, BUN, glucose, total protein, albumin, bilirubin (total), alkaline phosphatase, AST (SGOT), and ALT (SGPT), and lipid profile (HDL, LDL and triglycerides, cholesterol. Gynecologic exams were done at month 0, 6, 18 and at month 24 exit, with uterine ultrasounds at months 6, 18 and at month 24 exit. Mammograms were done in screening and at month 24 exit. Adverse event analysis was based on the percentage of patients who discontinued the study and the percentage of patients who discontinued the study possibly due to adverse events.
The rate of discontinuation was similar between groups (FIG. 1). A total of 60 patients (73.2%) in the Estriol plus GA group and 56 (73.7%) in the Placebo plus GA group completed the 24 month study treatment duration. Of the 158 patients, 15.8% discontinued the study during the first year (7.6% in the Estriol plus GA group and 8.2% in the Placebo plus GA group), and an additional 10.7% discontinued the study during the second year (6.3% and 4.4%, respectively). […] The most common reasons for discontinuation were lost to follow up or patient's decision based on family issues or time constraints.

[6] = negative value indicates improvement
[7] = negative value indicates worsening
[8] = logistic regression for repeated measurement, adjusted for age, education level, baseline recall

Substance: glatiramer acetate [Placebo + GA]
- overall rate of GM atrophy [1]: over 1.0 % per year
- Lesion activity on Brain MRI - proportion of patients with enhancing lesion, Month 12 % (95% CI) ([2]; Month 12): 21.0 (10.8-31.1) %
- Lesion activity on Brain MRI - proportion of patients with enhancing lesion, Month 24 % (95% CI) ([2]; Month 24): 14.6 (5.2-23.9) %
- cortical gray matter volume change from baseline ([2]; month 12, FIG. 7C, mean percent change from baseline): −0.74%
- whole gray matter volume change from baseline ([2]; month 12, FIG. 7D, mean percent change from baseline): −0.68%
- Enhancing Lesion Volume, Change from baseline at Mon 12, Mean ± SD [2, 6]: −18.7 ± 184
- Enhancing Lesion Volume, Change from baseline at Mon 12, Median [2, 6]: 0
- Enhancing Lesion Volume, Change from baseline at Mon 24, Mean ± SD [2, 6]: −34.0 ± 120
- Enhancing Lesion Volume, Change from baseline at Mon 24, Median [2, 6]: 0
- Number of Enhancing Lesions, Change from baseline to Mon 12, Mean ± SD [2, 6]: −0.5 ± 1.8
- Number of Enhancing Lesions, Change from baseline to Mon 12, Median [2, 6]: 0
- Number of Enhancing Lesions, Change from baseline to Mon 24, Mean ± SD [2, 6]: −0.5 ± 2.4
- Number of Enhancing Lesions, Change from baseline to Mon 24, Median [2, 6]: 0
- Cortical gray matter volume % change from baseline at Month 12, Mean ± SD [2, 7]: −0.72 ± 0.80%
- Cortical gray matter volume % change from baseline at Month 12, Median [2, 7]: −0.67%
- Cortical gray matter volume % change from baseline at Month 24, Mean ± SD [2, 7]: −1.04 ± 0.87%
- Cortical gray matter volume % change from baseline at Month 24, Median [2, 7]: −0.93%
- White matter volume % change from baseline at Month 12, Mean ± SD [2, 7]: −0.20 ± 0.83%
- White matter volume % change from baseline at Month 12, Median [2, 7]: −0.11%
- White matter volume % change from baseline at Month 24, Mean ± SD [2, 7]: −0.54 ± 1.12%
- White matter volume % change from baseline at Month 24, Median [2, 7]: −0.56%
- Whole Brain volume % change from baseline at Month 12, Mean ± SD [2, 7]: −0.50 ± 0.64%
- Whole Brain volume % change from baseline at Month 12, Median [2, 7]: −0.43%
- Whole Brain volume % change from baseline at Month 24, Mean ± SD [2, 7]: −0.78 ± 0.73%
- Whole Brain volume % change from baseline at Month 24, Median [2, 7]: −0.91%
- Whole gray matter volume % change from baseline at Month 12, Mean ± SD [2, 7]: −0.69 ± 0.71%
- Whole gray matter volume % change from baseline at Month 12, Median [2, 7]: −0.68%
- Whole gray matter volume % change from baseline at Month 24, Mean ± SD [2, 7]: −0.95 ± 0.76%
- Whole gray matter volume % change from baseline at Month 24, Median [2, 7]: −0.93%
- Percentage of subjects achieving a perfect score on the 7/24 Spatial Recall Test ([3]; Month 3): 60.8 (45/74) %
- Percentage of subjects achieving a perfect score on the 7/24 Spatial Recall Test ([3]; Month 6): 73.2 (52/71) %
- Percentage of subjects achieving a perfect score on the 7/24 Spatial Recall Test ([3]; Month 12): 71.4 (45/63) %
- Percentage of subjects achieving a perfect score on the 7/24 Spatial Recall Test ([3]; Month 18): 63.6 (35/55) %
- Percentage of subjects achieving a perfect score on the 7/24 Spatial Recall Test ([3]; Month 24): 75.0 (42/56) %
- 7/24 Spatial Recall Test, Estimated perfect score rate (95% CI) [3, 8]: 69.8 (63.4, 75.5) %
- Percentage of subjects achieving a perfect score on the Delayed Recall Test ([4]; Month 3): 65.9 (48/74) %
- Percentage of subjects achieving a perfect score on the Delayed Recall Test ([4]; Month 6): 76.1 (54/71) %
- Percentage of subjects achieving a perfect score on the Delayed Recall Test ([4]; Month 12): 69.8 (44/63) %
- Percentage of subjects achieving a perfect score on the Delayed Recall Test ([4]; Month 18): 65.4 (36/55) %
- Percentage of subjects achieving a perfect score on the Delayed Recall Test ([4]; Month 24): 75.0 (42/56) %
- Delayed Recall Test, Estimated perfect score rate (95% CI) [4, 8]: 73.2 (65.7, 79.5) %
- Adverse events leading to discontinuation - (%) [5]: (6%)
- Endometrial biopsies performed - (%) [5]: (8) %
- Endometrial thickness >8 mm (ultrasound) - (%) [5]: (36) %
- Fibrocystic disease on clinical exam, number [5]: 4
- Fibrocystic disease on clinical exam, value in parentheses [5]: (5)
- Fibroids (ultrasound) - (%) [5]: (11) %
- Mammogram with malignancy [5]: 0
- Vaginal infection - no. of events [5]: occurred more
